Data as given in patent US5773236A, “Assay for glutathiane transferase using polyhaloaryl-substituted reporter molecules” (Molecule Probes, Inc., priority 1997, dated 1998).
Where a name gives a salt, the structure may show the parent alone.

test system: 3T3 or BPAE cells; experiment: Intracellular products of tracers by gel electrophoresis (Example 67); type: cell-based; details: 5 μM, 1 hr, 37° C.
Experimental: (§1) Cultures of either 3T3 or BPAE cells are treated with 5 μM solutions of either Compound 4,5-(pentachlorobenzoylamino)fluorescein diacetate, 5-pentafluorobenzenesulfonylamino)fluorescein diacetate, or 5-chloromethylfluorescein diacetate (CMFDA, Molecular Probes, Inc.) for 1 hr at 37° C. The cells are spun, resuspended in distilled water and lysed by repeated freezing and thawing. 20 μL of the cell lysate supernatant is diluted with 30 μL of SDS-PAGE sample buffer, containing β-mercaptoethanol. The cell pellets are dispersed in 50 μL of water. 20 μL of each sample is added to 30 μL of the same sample buffer. The samples are heated at 95° C. for 5 min. and loaded on 4-20% polyacrylamide gradient minigels. At the completion of the run the gels are observed with UV excitation.

For `CC(=O)Oc1ccc2c(c1)Oc1cc(OC(C)=O)ccc1C21OC(=O)c2cc(NC(=O)c3c(Cl)c(Cl)c(Cl)c(Cl)c3Cl)ccc21` [5-(pentachlorobenzoylamino)fluorescein diacetate], which “fluorescent bands on gel (region of the tracking dye)” value is on record?
The value was “a single band in the region of the tracking dye”.

What about the “protein adduct bands on gel” value of the same compound?
Its value is “do not shown a protein adduct”.

How did the “fluorescent bands on gel (region of the tracking dye)” value turn out when `CC(=O)Oc1ccc2c(c1)Oc1cc(OC(C)=O)ccc1C21OC(=O)c2cc(NS(=O)(=O)c3c(F)c(F)c(F)c(F)c3F)ccc21` [5-pentafluorobenzenesulfonylamino)fluorescein diacetate] was run?
Its value is “Two closely spaced green fluorescent bands”.

And the “protein adduct bands on gel” value?
Its value is “No other band corresponding to proteins is visible”.

`CC(=O)Oc1ccc2c(c1)Oc1cc(OC(C)=O)ccc1C21OC(=O)c2cc(CCl)ccc21` [CMFDA, 5-chloromethylfluorescein diacetate, reference compound] was tested. Which “protein adduct bands on gel” value did it give?
Its value is “multiple fluorescent bands”.

test system: glutathione S-transferase; experiment: Other derivatives tested as GSH/GST substrates, TLC (Example 54); type: biochemical; details: 0.2-0.5 mM compound in 50 mM MOPS, pH 7.5, TLC
Experimental: The reaction is then stopped by adding 10% H2 O2.
The PHA compound (ethanol stock solution, 2 mM) and reduced glutathione (phosphate buffer stock solution, 5 mM) are incubated under the same conditions as described above without addition of glutathione S-transferase.
Commercial precast silica gel TLC plates are used to follow both the enzymatic reaction and the blank control reaction. […] UV absorbance by the PHA substituent always permits detection of both the compound and any glutathione adduct by fluorescence quenching when the TLC sheet is illuminated with 254-nm radiation. Fluorescent compounds can be directly detected using appropriate UV or visible illumination. […] Furthermore, the intensity of the signal on the TLC sheet often can be enhanced by methods well known in the art, such as by application of a phosphomolybdate spray, iodine vapors or a similar detection reagent. Radioactive products can be directly detected and quantitated by exposure to a suitable film using methods well known in the art.

How did the glutathione adducts detected turn out when `O=C(c1c(F)c(F)c(F)c(F)c1F)c1cc2ccc(O)cc2oc1=O` [7-hydroxy-3-(pentafluorobenzoyl)coumarin] was run?
The glutathione adducts detected was “detectable glutathione adducts”.

Which glutathione adducts detected does the source give for `O=C(c1c(F)c(F)c(F)c(F)c1F)N1CCN(C(=O)c2c3oc4cc(O)c(Cl)cc4nc-3ccc2=O)CC1` [Compound 17] here?
The glutathione adducts detected was “detectable glutathione adducts”.

With `O=C(c1c(F)c(F)c(F)c(F)c1F)N1CCN(C(=O)c2c3oc4cc(O[C@@H]5O[C@H](CO)[C@H](O)[C@H](O)[C@H]5O)c(Cl)cc4nc-3ccc2=O)CC1` [Compound 22, 8-chloro-3,7-dihydroxy-4-(4-pentafluorobenzoyl-1-piperazinecarbonyl)phenoxazine β-D-galactopyranoside] as the compound, how does the glutathione adducts detected read?
Its glutathione adducts detected is “detectable glutathione adducts”.

How did the glutathione adducts detected turn out when `CN(C)c1ccc2c(c1)Oc1cc(N(C)C)ccc1C21OC(=O)c2cc(NC(=O)c3c(F)c(F)c(F)c(F)c3F)ccc21` [Compound 25, 5-(pentafluorobenzoylamino)tetramethylrhodamine] was run?
The glutathione adducts detected was “detectable glutathione adducts”.

How did the glutathione adducts detected turn out when `O=C(Nc1ccc2c(c1)C(=O)OC21c2ccc(O)cc2Oc2cc(O)ccc21)c1cc(F)c(F)c(F)c1` [Compound 26, 5-(3',4',5'-trifluorobenzoylamino)fluorescein] was run?
The glutathione adducts detected was “detectable glutathione adducts”.

For `O=C1OC2(c3ccc(O)cc3Oc3cc(O)ccc32)c2ccc(NC(=O)c3c(F)c(F)c(F)c(F)c3C(=O)O)cc21` [Compound 27, 5-(2'-carboxy-3',4',5',6'-tetrafluorobenzoylamino)fluorescein], which glutathione adducts detected is on record?
The glutathione adducts detected was “detectable glutathione adducts”.

`O=C1OC2(c3ccc(O)cc3Oc3cc(O)ccc32)c2ccc(N3C(=O)c4c(F)c(F)c(F)c(F)c4C3=O)cc21` [Compound 28, 5-tetrafluorophthalimidylfluorescein] was tested. Which glutathione adducts detected did it give?
Its glutathione adducts detected is “detectable glutathione adducts”.

For `CCN(CC)c1ccc2c(CNC(=O)c3c(F)c(F)c(F)c(F)c3F)cc(=O)oc2c1` [Compound 29, 7-diethylamino-4-(((Pentafluorobenzoyl)amino)methyl)coumarin], which glutathione adducts detected is on record?
The glutathione adducts detected was “detectable glutathione adducts”.

For `Cc1cc(C)n2c1C=C1C=CC(CCC(=O)NCCNC(=O)c3c(F)c(F)c(F)c(F)c3F)=[N+]1[B-]2(F)F` [Compound 30], which glutathione adducts detected is on record?
The glutathione adducts detected was “detectable glutathione adducts”.

`NCCNC(=O)c1c(F)c(F)c(F)c(F)c1F` [Compound 31, ((2-(pentafluorobenzoyl)amino)ethyl)ammonium trifluoroacetate] was tested. Which glutathione adducts detected did it give?
The glutathione adducts detected was “detectable glutathione adducts”.

Which glutathione adducts detected does the source give for `O=C(NCCNC(=O)c1cc2ccc(O)cc2oc1=O)c1c(F)c(F)c(F)c(F)c1F` [Compound 32, 7-hydroxy-3-((((2-(pentafluorobenzoyl)amino)ethyl)amino)carbonyl)coumarin] here?
Its glutathione adducts detected is “detectable glutathione adducts”.

For `CN(C)c1ccc2c(CC(=O)NCCNC(=O)c3c(F)c(F)c(F)c(F)c3F)cc(=O)oc2c1` [Compound 40, 7-dimethylamino-4-(((((2-(pentafluorobenzoyl)amino)ethyl)amino)carbonyl)methyl)coumarin], which glutathione adducts detected is on record?
Its glutathione adducts detected is “detectable glutathione adducts”.

How did the glutathione adducts detected turn out when `O=c1oc2cc(O)ccc2cc1-c1c(F)c(F)c(F)c(F)c1F` [Compound 41, 7-hydroxy-3-pentafluorophenylcoumarin] was run?
The glutathione adducts detected was “detectable glutathione adducts”.

How did the glutathione adducts detected turn out when `O=C(c1c(F)c(F)c(F)c(F)c1F)c1cc2cc(F)c(O)c(F)c2oc1=O` [Compound 42, 6,8-difluoro-7-hydroxy-3-pentafluorobenzoylcoumarin] was run?
Its glutathione adducts detected is “detectable glutathione adducts”.

For `O=c1[nH][nH]c(=O)c2c(F)c(F)c(F)c(F)c12` [Compound 43, tetrafluorophthalhydrazide], which glutathione adducts detected is on record?
Its glutathione adducts detected is “detectable glutathione adducts”.

How did the glutathione adducts detected turn out when `O=c1cc(-c2c(F)c(F)c(F)c(F)c2F)c2ccc(O)cc2o1` [Compound 44, 7-hydroxy-4-pentafluorophenylcoumarin] was run?
The glutathione adducts detected was “detectable glutathione adducts”.

test system: 3T3 or BPAE cells; experiment: Intracellular products of tracers by TLC and HPLC (Example 67); type: cell-based; details: 5 μM, 1 hr, 37° C., HPLC
Experimental: Reaction mixtures with and without GST using Compound 1 as the substrate, are prepared as described in Example 48. The solutions are mixed overnight with three volumes of ethyl acetate followed by centrifugation at 15,000×g for 30 min to separate the organic and aqueous layers. HPLC analysis using a Rainin HPLC equipped with a C18, 5 μm, 100 Å, 4.6×250 mm MICROSORB-MV reverse phase column. Products are separated in 30 min with a gradient of 5% to 95% solvent B in Solvent A at a flow rate of 1 mL/min, where solvent A is 0.1M triethylammonium acetate, pH 7.0, and solvent B is acetonitrile (see FIG. 1). Products are detected by reading the absorbance at 500 nm. Peaks are identified and, if desired, quantitated by comparing retention times with authentic samples of the glutathione adduct of Compound 45 (Example 45).
as §1
Alternatively, the above samples are analyzed by TLC and by HPLC, as described in Examples 48 and 52. […] Coinjection with authentic Compound 1 confirms the identity of the substrate peak and coinjection with the authentic Compound 1-GSH adduct (Example 45) confirms the identify of the other fluorescent product.

With `CC(=O)Oc1ccc2c(c1)Oc1cc(OC(C)=O)ccc1C21OC(=O)c2cc(CCl)ccc21` [CMFDA, 5-chloromethylfluorescein diacetate, reference compound] as the compound, how does the “products by HPLC” value read?
Its value is “the glutathione adduct and additional small peaks”.

same assay, conditions: 5 μM, 1 hr, 37° C., TLC

`CC(=O)Oc1ccc2c(c1)Oc1cc(OC(C)=O)ccc1C21OC(=O)c2cc(NC(=O)c3c(Cl)c(Cl)c(Cl)c(Cl)c3Cl)ccc21` [5-(pentachlorobenzoylamino)fluorescein diacetate] was tested. Which “products by TLC” value did it give?
Its value is “Only a single, fast-moving fluorescent band corresponding to authentic 5-(pentachlorobenzoylamino)fluorescein”.

`CC(=O)Oc1ccc2c(c1)Oc1cc(OC(C)=O)ccc1C21OC(=O)c2cc(NS(=O)(=O)c3c(F)c(F)c(F)c(F)c3F)ccc21` [5-pentafluorobenzenesulfonylamino)fluorescein diacetate] was tested. Which “products by TLC” value did it give?
Its value is “formation of a GSH adduct”.

`CC(=O)Oc1ccc2c(c1)Oc1cc(OC(C)=O)ccc1C21OC(=O)c2cc(CCl)ccc21` [CMFDA, 5-chloromethylfluorescein diacetate, reference compound] was tested. Which “products by TLC” value did it give?
Its value is “multiple TLC bands”.

test system: Bovine pulmonary aorta endothelial cells (BPAEC); experiment: Glutathione adduct formation and fate of substrate in cultured animal cells, HPLC (Example 66); type: cell-based; details: BPAEC, up to 4 hours
Experimental: The solutions are mixed overnight with three volumes of ethyl acetate followed by centrifugation at 15,000×g for 30 min to separate the organic and aqueous layers. HPLC analysis using a Rainin HPLC equipped with a C18, 5 μm, 100 Å, 4.6×250 mm MICROSORB-MV reverse phase column. […] Products are detected by reading the absorbance at 500 nm.
Bovine pulmonary aorta endothelial cells (BPAEC) are removed from flasks by trypsinization and washed into fresh complete growth medium to yield 10^6 cells/mL. […] Other aliquots of the cell suspension are loaded with the same substrates for 1 hour, rinsed into fresh complete medium, then incubated in the absence of substrate for an additional 3 hr at 37° C. to look for retention and efflux of fluorescent products. At the end of each incubation period the cells are removed by centrifugation and the supernate is retained. The cell pellets are resuspended in 1 mL of E-Pure water and subjected to three freeze-thaw cycles (-80° C. to 37° C.).

Which “retention of GSH adduct / fluorescence labeling in cells” value does the source give for `N[C@@H](CCC(=O)N[C@@H](CSc1c(F)c(F)c(C(=O)Nc2ccc3c(c2)C(=O)OC32c3ccc(O)cc3Oc3cc(O)ccc32)c(F)c1F)C(=O)NCC(=O)O)C(=O)O` [Compound 45, 5-(4'-(S-glutathionyl))-(2',3', 5',6'-tetrafluorobenzoylamino)fluorescein] here?
The value was “rapidly removed from the cytoplasm of these BPAEC cells but a fraction of the fluorescence labeling is retained, even after 4 hours”.
